Reference: paper PMC3676484 (Journal of medicinal chemistry, 2013)

Assays:
[1] = tested on: GST-HIF-2α PAS-B* and ARNT PAS-B*-FLAG domains (HIF-2α–ARNT heterodimerization); assay: AlphaScreen luminescence proximity assay of HIF-2α–ARNT PAS-B heterodimerization; settings: for IC50: read-out: AlphaScreen IC50, disruption of HIF-2α PAS-B*–ARNT PAS-B* heterodimer; for AlphaScreen activity (in words): disruption of HIF-2α–ARNT heterodimerization
HIF-2α PAS-B domain = HIF-2α PAS-B domain (Homo sapiens, UniProt Q99814); assay: Isothermal titration calorimetry; assay type: binding; settings: for weakening of binding relative to compound 32: ITC data, compared with 32
Solubility observation = assay type: physicochemical

Sequence of HIF-2α PAS-B domain (Q99814 240-350 limits assumed): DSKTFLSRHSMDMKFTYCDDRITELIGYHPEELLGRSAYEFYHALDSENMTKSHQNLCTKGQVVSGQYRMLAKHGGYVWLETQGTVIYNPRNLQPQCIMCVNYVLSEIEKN

SMILES	IC50 [1] [µM]	further results
Cc1ccc(CNc2ccc3nonc3c2[N+](=O)[O-])cc1 [Compound 4]	> 30	–
COc1cccc(Nc2ccc3nonc3c2[N+](=O)[O-])c1 [Compound 16]	> 30	–
O=[N+]([O-])c1c(Nc2cccc(Cl)c2)ccc2nonc12 [Compound 19]	–	weakening of binding relative to compound 32 (HIF-2α PAS-B domain): two fold reduction in affinity
O=[N+]([O-])c1c(Nc2ccc(Br)cc2)ccc2nonc12 [Compound 20]	> 30	–
O=[N+]([O-])c1c(Nc2cccc(F)c2)ccc2nonc12 [Compound 23]	–	weakening of binding relative to compound 32 (HIF-2α PAS-B domain): 25 fold
O=[N+]([O-])c1c(Nc2cc(F)cc(F)c2)ccc2nonc12 [Compound 30]	–	weakening of binding relative to compound 32 (HIF-2α PAS-B domain): 8 fold
Fc1cc(Cl)cc(Nc2ccc3nonc3c2)c1 [Compound 46]	–	solubility (in words) (Solubility observation): relatively insoluble; AlphaScreen activity (in words) [1]: weak activity
Nc1c(Nc2cc(F)cc(Cl)c2)ccc2nonc12 [Compound 47]	–	solubility (in words) (Solubility observation): relatively insoluble; worsening of binding and disruption relative to compound 32 (HIF-2α PAS-B domain; binding and disruption, NO2 replaced by NH2, compared with 32): 30–60 fold; AlphaScreen activity (in words) [1]: weak activity
O=C1C=CC(=O)N1c1c(Nc2cc(F)cc(Cl)c2)ccc2nonc12 [Compound 50]	> 30	–
CN(C)S(=O)(=O)c1c(Nc2cc(F)cc(Cl)c2)ccc2nonc12 [Compound 55]	–	AlphaScreen activity (in words) [1]: inactive as disruptors

Second part, led by results:

IC50 [1] [µM]	SMILES	further results
> 30	O=[N+]([O-])c1c(NCc2c(F)cccc2Cl)ccc2nonc12 [Compound 7]	–
> 30	O=[N+]([O-])c1c(NCc2cc(F)ccc2C(F)(F)F)ccc2nonc12 [Compound 11]	–
> 30	O=[N+]([O-])c1c(Nc2ccc(F)cc2)ccc2nonc12 [Compound 17]	–
> 30	O=[N+]([O-])c1c(Nc2ccc(Cl)cc2)ccc2nonc12 [Compound 18]	–
> 30	O=[N+]([O-])c1c(Nc2ccc(C(F)(F)F)cc2Cl)ccc2nonc12 [Compound 24]	–
> 30	CC(=O)Nc1c(Nc2cc(F)cc(Cl)c2)ccc2nonc12 [Compound 48]	–
> 30	O=C(CCl)Nc1c(Nc2cc(F)cc(Cl)c2)ccc2nonc12 [Compound 49]	–
> 30	CNS(=O)(=O)c1c(Nc2cc(F)cc(Cl)c2)ccc2nonc12 [Compound 54]	AlphaScreen activity (in words) [1]: inactive as disruptors
